Source: the supplement of paper PMC11628255, “Interference of metal ions on the bioluminescent signal of firefly, Renilla, and NanoLuc luciferases in high-throughput screening assays” (Frontiers in Chemistry, 2024)
± gives the standard deviation of the averaged measurements.

How the values were obtained:
Assay in all cases: normalised percent inhibition of luminescence (vs positive and negative controls); higher = stronger inhibition
[1] = test system: NanoLuc luciferase (NLuc)
Experimental: (§1)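 Concentration-response (>=11 concentrations) of metal salts on purified FLuc, NLuc or RLuc luminescence in screening (SC) or 100 mM HEPES (H) buffer; salt pre-incubated with enzyme 10 min at RT, read 10 min after substrate. Normalised percent inhibition vs plate positive (PTC-124, isradipine, BTS) and DMSO negative controls; triplicate wells.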

[2] = test system: Renilla luciferase (RLuc)
Experimental: as §1

[3] = test system: firefly luciferase (FLuc)
Experimental: as §1

O=S(=O)([O-])[O-].[Fe+2] [iron(II) sulfate]
normalised percent inhibition [%]
Settings	[1]	[2]	[3]
metal salt concentration 0.0001 mM, 100 mM HEPES buffer	-2.4 ± 0.95	41.8 ± 57	-15.4 ± 19
metal salt concentration 0.00025 mM, 100 mM HEPES buffer	0.242 ± 1.3	-25.1 ± 17	-21.3 ± 21
metal salt concentration 0.0005 mM, 100 mM HEPES buffer	3.64 ± 1.7	-18.6 ± 45	-14.6 ± 9.3
metal salt concentration 0.001 mM, 100 mM HEPES buffer	0.251 ± 4.1	-4.06 ± 18	25.9 ± 67
metal salt concentration 0.002 mM, screening conditions buffer	-6.27 ± 4.7	2.02 ± 10	1.35 ± 17
metal salt concentration 0.005 mM, screening conditions buffer	5.45 ± 5.8	11 ± 4.1	9.94 ± 12
metal salt concentration 0.01 mM, screening conditions buffer	3.08 ± 4.9	18.2 ± 2.5	4.1 ± 16
metal salt concentration 0.02 mM, screening conditions buffer	7.25 ± 4.3	17.5 ± 9.7	6.54 ± 4.6
metal salt concentration 0.025 mM, 100 mM HEPES buffer	3.97 ± 5	28.6 ± 12	62.5 ± 8.3
metal salt concentration 0.05 mM, 100 mM HEPES buffer	6.24 ± 1.8	50.9 ± 12	100.1 ± 0.94
metal salt concentration 0.05 mM, screening conditions buffer	11.5 ± 2.6	3.55 ± 9.2	7.51 ± 17
metal salt concentration 0.1 mM, 100 mM HEPES buffer	19.9 ± 2.1	85.8 ± 11	99.99 ± 0.56
metal salt concentration 0.1 mM, screening conditions buffer	37.5 ± 3	58.5 ± 6.4	-0.76 ± 26
metal salt concentration 0.2 mM, screening conditions buffer	49.5 ± 7.2	74.4 ± 2.4	28.7 ± 16
metal salt concentration 0.5 mM, 100 mM HEPES buffer	67.9 ± 3.6	104.9 ± 0.56	100.2 ± 0.56
metal salt concentration 0.5 mM, screening conditions buffer	81.1 ± 2	93.3 ± 5.9	94.1 ± 5.9
metal salt concentration 1 mM, 100 mM HEPES buffer	87.7 ± 2.2	105 ± 3.1	100.3 ± 0.16
metal salt concentration 1 mM, screening conditions buffer	138 ± 2.5	96 ± 1.3	99.42 ± 0.97
metal salt concentration 2.5 mM, 100 mM HEPES buffer	101 ± 0.26	104 ± 3	100.2 ± 0.16
metal salt concentration 2.5 mM, screening conditions buffer	157.3 ± 1.2	103.6 ± 0.89	100.4 ± 0.49
metal salt concentration 5 mM, 100 mM HEPES buffer	101.93 ± 0.031	107 ± 1.1	100.2 ± 0.41
metal salt concentration 5 mM, screening conditions buffer	158.9 ± 1.2	105 ± 1.6	101.2 ± 0.28

[Cl][Pt-2]([Cl])([Cl])[Cl].[K+].[K+] [potassium tetrachloroplatinate(II)]
normalised percent inhibition [%]
Settings	[1]	[2]	[3]
metal salt concentration 0.0001 mM, 100 mM HEPES buffer	1.21 ± 6.3	6.41 ± 13	-10.3 ± 14
metal salt concentration 0.00025 mM, 100 mM HEPES buffer	-0.51 ± 2.1	4.68 ± 16	4.97 ± 14
metal salt concentration 0.0005 mM, 100 mM HEPES buffer	2.19 ± 0.21	-6.41 ± 1.1	6.27 ± 23
metal salt concentration 0.001 mM, 100 mM HEPES buffer	0.76 ± 1.2	-11.3 ± 12	12.9 ± 5
metal salt concentration 0.002 mM, screening conditions buffer	6.88 ± 2.2	13.4 ± 6.2	23.2 ± 18
metal salt concentration 0.005 mM, screening conditions buffer	2.83 ± 7.4	5.74 ± 9.8	28.2 ± 14
metal salt concentration 0.01 mM, screening conditions buffer	1.24 ± 5.6	8.68 ± 1.2	32.2 ± 10
metal salt concentration 0.02 mM, screening conditions buffer	5.06 ± 1.3	2.57 ± 5.2	39.4 ± 9.2
metal salt concentration 0.025 mM, 100 mM HEPES buffer	4.56 ± 2.9	8.38 ± 2.1	39.2 ± 5.7
metal salt concentration 0.05 mM, 100 mM HEPES buffer	10.3 ± 3.5	-3.94 ± 13	56.4 ± 4.2
metal salt concentration 0.05 mM, screening conditions buffer	18.1 ± 3.8	19.4 ± 3.4	68.7 ± 7.4
metal salt concentration 0.1 mM, 100 mM HEPES buffer	15.1 ± 4.1	5.67 ± 12	79.8 ± 4.1
metal salt concentration 0.1 mM, screening conditions buffer	41.9 ± 8.1	27.8 ± 2.8	86 ± 3.3
metal salt concentration 0.2 mM, screening conditions buffer	60.3 ± 5.5	41.3 ± 8.9	98.8 ± 1
metal salt concentration 0.5 mM, 100 mM HEPES buffer	76.6 ± 2.7	40.7 ± 15	100.5 ± 0.56
metal salt concentration 0.5 mM, screening conditions buffer	91.6 ± 2.5	66.7 ± 7	100.5 ± 0.44
metal salt concentration 1 mM, 100 mM HEPES buffer	87.7 ± 3.4	69.3 ± 4.8	100.2 ± 0.86
metal salt concentration 1 mM, screening conditions buffer	116 ± 1.7	95.3 ± 9.6	99.57 ± 0.77
metal salt concentration 2.5 mM, 100 mM HEPES buffer	93.7 ± 1.2	97.4 ± 5.5	100.4 ± 0.49
metal salt concentration 2.5 mM, screening conditions buffer	129.7 ± 0.94	105.3 ± 0.77	100.7 ± 0.14
metal salt concentration 5 mM, 100 mM HEPES buffer	96.98 ± 0.93	106	100.4 ± 0.37
metal salt concentration 5 mM, screening conditions buffer	134.6 ± 0.32	106.2 ± 0.36	100.8 ± 0.22

O=[N+]([O-])[O-].[Ag+] [silver nitrate]
normalised percent inhibition [%]
Settings	[1]	[2]	[3]
metal salt concentration 1.56 nM, screening conditions buffer	–	–	-3.5 ± 6
metal salt concentration 3.13 nM, screening conditions buffer	–	–	8.07 ± 5.3
metal salt concentration 6.25 nM, screening conditions buffer	–	–	-11.6 ± 7.4
metal salt concentration 12.5 nM, screening conditions buffer	–	–	2.67 ± 4.2
metal salt concentration 25 nM, screening conditions buffer	–	–	-5.14 ± 3.2
metal salt concentration 50 nM, screening conditions buffer	–	–	1.37 ± 6.6
metal salt concentration 0.0001 mM, 100 mM HEPES buffer	1.65 ± 1.5	2.89 ± 12	98 ± 2.2
metal salt concentration 0.0001 mM, screening conditions buffer	–	–	0.486 ± 5.2
metal salt concentration 0.00025 mM, 100 mM HEPES buffer	-1.44 ± 2.1	-2.96 ± 23	100.3 ± 0.19
metal salt concentration 0.00025 mM, screening conditions buffer	–	–	54.3 ± 6.3
metal salt concentration 0.0005 mM, 100 mM HEPES buffer	-1.42 ± 4.4	-1.85 ± 16	99.84 ± 0.56
metal salt concentration 0.0005 mM, screening conditions buffer	–	–	100.1 ± 0.16
metal salt concentration 0.001 mM, 100 mM HEPES buffer	2.97 ± 6.6	-11.8 ± 14	100.3 ± 0.19
metal salt concentration 0.001 mM, screening conditions buffer	–	–	100.19 ± 0.055
metal salt concentration 0.002 mM, screening conditions buffer	20.8 ± 3.6	10.7 ± 8.6	100.6 ± 0.14
metal salt concentration 0.005 mM, screening conditions buffer	80.1 ± 3.5	8.28 ± 9.9	100.7 ± 0.58
metal salt concentration 0.01 mM, 100 mM HEPES buffer	–	-3.09 ± 29	–
metal salt concentration 0.01 mM, screening conditions buffer	88 ± 46	13 ± 3.1	100.4 ± 0.49
metal salt concentration 0.02 mM, 100 mM HEPES buffer	–	-4.38 ± 18	–
metal salt concentration 0.02 mM, screening conditions buffer	107 ± 28	14.2 ± 12	100.7 ± 0.22
metal salt concentration 0.025 mM, 100 mM HEPES buffer	99.59 ± 0.3	84.8 ± 8.2	100.4 ± 0.49
metal salt concentration 0.04 mM, 100 mM HEPES buffer	–	47.3 ± 12	–
metal salt concentration 0.05 mM, 100 mM HEPES buffer	51.4 ± 54	104 ± 3.7	100.3 ± 0.68
metal salt concentration 0.05 mM, screening conditions buffer	118 ± 17	38.8 ± 7.9	99.8 ± 1.4
metal salt concentration 0.1 mM, 100 mM HEPES buffer	100.8 ± 0.22	107 ± 1.2	100.6 ± 0.19
metal salt concentration 0.1 mM, screening conditions buffer	119 ± 17	81.2 ± 3.3	–
metal salt concentration 0.2 mM, screening conditions buffer	133.6 ± 0.46	101 ± 3.2	–
metal salt concentration 0.5 mM, 100 mM HEPES buffer	101.7 ± 0.27	106 ± 1.4	100 ± 0.68
metal salt concentration 0.5 mM, screening conditions buffer	119 ± 16	105.9 ± 0.6	–
metal salt concentration 1 mM, 100 mM HEPES buffer	101.7 ± 0.68	106 ± 1.3	99.8 ± 1.1
metal salt concentration 1 mM, screening conditions buffer	120 ± 16	105.9 ± 0.36	–
metal salt concentration 2.5 mM, 100 mM HEPES buffer	101.97 ± 0.092	106.7 ± 0.43	100.4 ± 0.49
metal salt concentration 2.5 mM, screening conditions buffer	134.8 ± 0.48	106.2 ± 0.36	–
metal salt concentration 5 mM, 100 mM HEPES buffer	102 ± 0.14	106 ± 1.5	100.5 ± 0.56
metal salt concentration 5 mM, screening conditions buffer	135.3 ± 0.097	106.1 ± 0.41	–

CC#N.CC#N.CC#N.CC#N.F[B-](F)(F)F.[Cu+] [tetrakis(acetonitrile)copper(I) tetrafluoroborate]
normalised percent inhibition [%]
Settings	[1]	[2]	[3]
metal salt concentration 15.6 nM, 100 mM HEPES buffer	–	–	31.6 ± 5.6
metal salt concentration 31.25 nM, 100 mM HEPES buffer	–	–	19.4 ± 5.8
metal salt concentration 62.5 nM, 100 mM HEPES buffer	–	–	94.7 ± 2.4
metal salt concentration 0.0001 mM, 100 mM HEPES buffer	2.08 ± 2.5	-13.8 ± 1.9	98.82 ± 0.68
metal salt concentration 0.000125 mM, 100 mM HEPES buffer	–	–	99.64 ± 0.61
metal salt concentration 0.00025 mM, 100 mM HEPES buffer	-0.342 ± 1.6	12.4 ± 25	99.92 ± 0.95
metal salt concentration 0.0005 mM, 100 mM HEPES buffer	3.53 ± 1.5	-2.77 ± 18	100.6 ± 0.27
metal salt concentration 0.0005 mM, screening conditions buffer	–	–	19.7 ± 6.5
metal salt concentration 0.001 mM, 100 mM HEPES buffer	4.37 ± 2.7	-10.8 ± 24	100.1 ± 0.47
metal salt concentration 0.001 mM, screening conditions buffer	–	–	-12.4 ± 12
metal salt concentration 0.002 mM, screening conditions buffer	0.453 ± 3.1	12.9 ± 12	6.86 ± 16
metal salt concentration 0.005 mM, screening conditions buffer	0.553 ± 5.7	16.7 ± 4.2	13.5 ± 18
metal salt concentration 0.01 mM, screening conditions buffer	1.88 ± 5.3	11.3 ± 1.8	8.64 ± 11
metal salt concentration 0.02 mM, screening conditions buffer	9.53 ± 10	2.75 ± 5	7.18 ± 12
metal salt concentration 0.025 mM, 100 mM HEPES buffer	5.84 ± 3.1	75.8 ± 10	100.5 ± 0.33
metal salt concentration 0.025 mM, screening conditions buffer	–	–	20.1 ± 6.7
metal salt concentration 0.05 mM, 100 mM HEPES buffer	40.1 ± 16	102 ± 4	100.3 ± 0.32
metal salt concentration 0.05 mM, screening conditions buffer	91.9 ± 19	13.4 ± 7.8	3.96 ± 21
metal salt concentration 0.1 mM, 100 mM HEPES buffer	92.9 ± 4.2	105 ± 1.1	100.5 ± 0.28
metal salt concentration 0.1 mM, screening conditions buffer	158 ± 2.2	9.12 ± 4.9	24.1 ± 11
metal salt concentration 0.2 mM, screening conditions buffer	158.7 ± 0.69	3.41 ± 2.5	31.5 ± 16
metal salt concentration 0.25 mM, 100 mM HEPES buffer	–	–	100.3 ± 0.23
metal salt concentration 0.5 mM, 100 mM HEPES buffer	101.8 ± 0.16	106 ± 2.8	100.5 ± 0.16
metal salt concentration 0.5 mM, screening conditions buffer	160 ± 0.71	106.2 ± 0.25	56.9 ± 11
metal salt concentration 1 mM, 100 mM HEPES buffer	101.8 ± 0.24	107.5 ± 0.97	100.3 ± 0.63
metal salt concentration 1 mM, screening conditions buffer	159.9 ± 0.92	106.7 ± 0.13	99.7 ± 1.5
metal salt concentration 2.5 mM, 100 mM HEPES buffer	101.9 ± 0.13	106 ± 1.7	100.5 ± 0.31
metal salt concentration 2.5 mM, screening conditions buffer	161.2 ± 0.41	106.6 ± 0.25	100.3 ± 0.32
metal salt concentration 5 mM, 100 mM HEPES buffer	101.9 ± 0.11	107 ± 1.7	100.3 ± 0.16
metal salt concentration 5 mM, screening conditions buffer	161.65 ± 0.13	106.5 ± 0.51	100.4 ± 0.4
metal salt concentration 10 mM, screening conditions buffer	–	–	100.1 ± 0.14
metal salt concentration 20 mM, screening conditions buffer	–	–	100.2 ± 0.38
